In patent US20090162413A1 (priority 1998, published 2009):

System: porcine coronary arteries (neointimal hyperplasia)
Assay: porcine coronary stent model, zotarolimus-eluting BiodivYsio PC stent vs polymer only stent, 28 days (Example 3)
Assay type: in vivo
Settings: stent eluting zotarolimus from a polymer, porcine coronary artery

CO[C@H]1C[C@@H]2CC[C@@H](C)[C@@](O)(O2)C(=O)C(=O)N2CCCC[C@H]2C(=O)O[C@H]([C@H](C)C[C@@H]2CC[C@H](n3cnnn3)[C@H](OC)C2)CC(=O)[C@H](C)/C=C(\C)[C@@H](O)[C@@H](OC)C(=O)[C@H](C)C[C@H](C)/C=C/C=C/C=C/1C [zotarolimus]
neointimal hyperplasia: reduction in neointimal hyperplasia
